Reference: patent publication US10576078B2 (Council of Scientific & Industrial Research, priority 2017, dated 2020)

How the values were obtained:
[1] = test system: Peripheral blood mononuclear cells from control donors; assay: Apoptosis by annexin V/PI staining in PBMC from control donors; assay type: cell-based, Human; details: 5 μM, 48 h
[2] = test system: CP-CML cells; assay: Megakaryocytic surface markers in CP-CML cells by flow cytometry; assay type: cell-based, Human; details: 2.5 μM CFZ, 72 h
Experimental: FIG. 3D-3E in particular show CFZ induces megakaryocytic surface markers CD61 and CD41 in CP-CML cells. CD61 (D) and CD41 (E) surface expression in CP-CML (gated monocytes) cells after treatment with 2.5 μM CFZ for 72 h were assessed by flowcytometry. *p<0.05, ***p<0.0001.
Differentiation analyses by flow cytometry: K562 (FIG. 3B-C) or primary CP-CML cells (FIG. 3D-E) were treated with vehicle, CFZ and PMA as indicated in the respective figures and figure descriptions for 72 hrs. Cells were then harvested, washed, and centrifuged, resuspended in 100 μl PBS and were stained with CD41-FITC or CD61-PE antibodies for 30 min at room temperature (in dark). After incubation, the cells were washed and resuspended in 300 μl PBS and were analyzed on a FACSCalibur flow cytometer.

[3] = test system: CD34+ cells from healthy donors
Experimental: Determination of CFZ's Effect on Cell Viability and Apoptosis • a. CellTitre-Glo assay: Cell viability (in FIG. 1B, FIG. 4 and FIG. 6A) assays was performed using the ATP-based CellTiter-Glo Luminescent cell viability assay (Promega Madison, Wis.) as per the manufacturer's instruction. Briefly, (1.25×10^5) K562 cells/ml (FIG. 1B and FIG. 4) or CD34+ cells from healthy donors (FIG. 6A) were cultured in 48-well plates and were treated as indicated in the respective figures and figure descriptions (vehicle; V=0.1% DMSO). Cells were then incubated with CellTitre-Glo reagent for 15 min. Luminescence was recorded in a GloMax-96 Microplate luminometer (Promega, Madison, Wis.) with an integration time of 1 s per well. • b. Analysis of apoptosis by Annexin V staining and flow cytometry • K562 (FIG. 1C-D) and primary CP-CML cells (FIG. 1H-I) were cultured in 6 well plates (2×10^5 cells/well) and were treated with indicated concentrations of compounds as described in respective figures and their descriptions. Cells were then harvested and washed, and incubated in binding buffer (Annexin V Binding Buffer, BD Pharmingen) with 0.3% Annexin V-FITC and PI for 15 min at room temperature in dark. Apoptosis was measured by FACSCalibur flow cytometer (Becton Dickenson, San Jose, Calif.). • c. TUNEL assay • Pro-apoptotic potential was analysed using a Fluorometric APO-BrdU™ TUNEL Assay Kit (Invitrogen) according to the manufacturer's protocol (FIG. 1F). Cells were treated with Vehicle (0.1% DMSO) or CFZ (5 μM) for 48 h. Cells were then fixed in formaldehyde (4%) for 25 min at 4° C., permeabilized with 0.2% Triton-X100 and washed with PBS. Cells were then incubated in Terminal Deoxynucleotidyl Transferase (TdT) reaction buffer without TdT enzyme for 7 minutes at room temperature and then in TdT buffer with TdT enzyme at 37° C. in dark. After termination of TdT reaction, cells were stained with 5 μg/ml of PI for 15 min in dark followed by washing and analysed with fluorescence microscopy.

[4] = test system: chronic phase CML patient-derived mononuclear cells (CP-CML cells); assay: Apoptosis by annexin V/PI staining in CP-CML cells; assay type: cell-based, Human; details: 5 μM, 48 h
Excerpt: FD; freshly diagnosed, Resp; imatinib-responder, Res; imatinib-resistant.
Peripheral blood samples were obtained from chronic phase (CP-CML), accelerated phase (AP) or blast crisis (BC) CML patients (BCR− ABL+ v e freshly diagnosed, Imatinib-resistant or responders), and healthy donors from King George's Medical University (Clinical Hematology and Medical Oncology division), Lucknow, following ethical approval (Approval No: 1638/R. Cell-12) as per institutional ethical guidelines after written consent. Peripheral blood mononuclear cells (PBMC) were isolated on Percoll (Sigma) density gradient by centrifugation. Briefly, the blood was collected in vials coated with trisodium citrate buffer. Cells were then centrifuged 700 g for 10 min and plasma was removed. The pellet was resuspended in 6 ml Hank's balanced salt solution (HBSS; Invitrogen, Thermo Fisher Scientific), and then 2 ml of 6% Dextran in HBSS was added to it. Cells were then incubated at 37° C. for 30 min. The supernatant was then collected and centrifuged at 300 g for 5 min. The pellet was then resuspended in 2 ml HBSS supplemented with 0.18% glucose and loaded onto percoll gradient. PBMCs were then isolated by centrifugation.

[5] = test system: CrkL; assay: Immunoblotting of CrkL phosphorylation in K562 cells; assay type: cell-based, Human; details: 30 min, Y207
Experimental: K562 cells were treated as indicated for 30 min and stat5 phosphorylation at Y694 or CrkL phosphorylation at Y207 were assessed by immunoblotting. Total stat5 or β-actin expression was assessed to ensure equal loading. Pio was used as a negative control and IMT was used as a positive control. Data is one representative of 3 independent experiments.
K562 cells were cultured in 6 well plates and treated as indicated in figures or descriptions of FIG. 1E, FIG. 1G and FIG. 2D-E. Cells were then homogenized in lysis buffer containing 50 mM Tris-HCl, pH 7.5, 150 mM NaCl, 1% NP40, 5 mM EDTA, 1 mM DTT, protease and phosphatase inhibitor cocktails (Sigma) and incubated on ice for 30 min followed by 5 cycles of freeze-thaw. Samples were then centrifuged at 14000 rpm at 4° C. for 30 min. Supernatants were then quantified by Bichinchonic acid (Sigma)-based protein estimation. Equal amount of proteins were solubilized in Laemmli buffer, and were resolved by 10%-12% SDS PAGE and transferred onto PVDF membranes (Millipore; Billerica, Mass.). Membranes were blocked in 5% (w/v) non-fat dried milk powder (Sigma) in PBS containing 0.2% Tween 20 (Sigma). […] Immunoreactivity was detected using a chemiluminescent HRP Substrate (Millipore) in a LAS 4010 Chemi-doc Imager (GE Healthcare, Little Chalfont, UK). […]

## CC(C)/N=c1\cc2n(-c3ccc(Cl)cc3)c3ccccc3nc-2cc1Nc1ccc(Cl)cc1 [CFZ, Clofazimine]
[1]
  apoptosis in cells from control donors: didn't affect
[2]
  megakaryocytic surface marker CD41: increased
  megakaryocytic surface marker CD61: increased
[3]
  apoptosis in CD34+ cells from healthy donor by Annexin V: no apoptosis
  viability of CD34+ hematopoietic progenitor cells from healthy controls: No loss of survival
[4]; CP-CML cells from freshly diagnosed patients
  efficacy of apoptosis induction: comparable to imatinib
[4]; CP-CML cells from imatinib responders
  efficacy of apoptosis induction: comparable to imatinib
[4]; CP-CML cells harboring BCR-ABL mutation F359V
  efficacy of apoptosis induction versus dasatinib: higher
[4]; CP-CML cells harboring BCR-ABL mutation M244V
  efficacy of apoptosis induction versus dasatinib: comparable
[4]; CP-CML cells harboring BCR-ABL mutation M351T
  efficacy of apoptosis induction versus dasatinib: higher
[4]; CP-CML cells harboring BCR-ABL mutation Y253H
  efficacy of apoptosis induction versus dasatinib: higher
[4]; imatinib-resistant CP-CML cells
  efficacy of apoptosis induction: higher than imatinib and dasatinib
[5]
  CrkL phosphorylation: did not alter
